Data published in patent publication US8460635B2, “Fenretinide derivatives and uses thereof as therapeutic, diagnostic and imaging agents” (Albert Einstein College of Medicine of Yeshiva University, priority 2008, dated 2013).
“Also recorded” adds a separate entry of the source. Read-outs that look alike come from different tables or passages of the source.

Tests used:
Assay type in all cases: cell-based
[1] = system: MON (INI1−/−) rhabdoid tumor cells; experiment: MTS survival assay of rhabdoid tumor cells; settings: for cytotoxic activity against rhabdoid tumor cells (in words): compared with 4-HPR
Method: FIG. 1A-1D. Effect of 4HPR derivatives with phenyl group substitutions on survival of rhabdoid tumors cells. MON (INI1−/−) cells were treated with serial dilutions of the 4HPR, ATRA and 4HPR derivatives for three days. Survival assay was carried out as described using MTS assay kit. Percentage of cell survival plotted against concentration of drugs (Mean+/−SEM).
FIG. 2. Effect of fenretinide peptidomimitic derivatives on the survival of rhabdoid tumor cells in culture. % survival of MON rhabdoid tumor cells treated with fenretinide derivatives, when compared to the vehicle treated control. The data in all the panels represent the average of triplicate experiments, and the standard error is indicated.
The rhabdoid cell line (MON) (88) was cultured in RPMI 1640 supplemented with 10% fetal bovine serum, 2 mM L-glutamine, 50 U/ml penicillin, and 50 μg/ml streptomycin at 37° C. with 5% CO2 and 95% humidified air. 4-(Fenretinide) was either obtained from NCI or synthesized in house. Fenretinide or its synthetic derivatives were reconstituted in 100% ethanol as a 10 mM solution and the aliquots were stored frozen at −80° C., protected from light. Working solutions (50 μM or 200 μM) and serial dilutions were prepared by diluting the stock solution with culture medium, such that the concentration of ethanol was <2% in all dilutions.
Aliquots of 8×10^3 MON cells were plated in 96-well microdilution plates. Twenty four hours after seeding, the cells were treated with serial dilutions of each drug. Following incubation for 24 or more hours, each well was stained with 20 μl of MTS [3-(4,5-dimethylthiazol-2-yl)-5-(3-carboxymethoxyphenyl)-2-(4-sulfophenyl)-2H-tetrazolium, inner salt] that was mixed 20:1 V/V in PMS (phenazine methosulphate, CellTiter 96® AQueous Non-Radioactive Cell Proliferation Assay Kit, Promega, Madison, Wis.) added to each of the well in the microtiter plate containing 100 μl of culture medium. After 4 h incubation, the plates were analyzed by an ELISA plate reader (Wallac Victor, 1420 Multilabel Counter, Perkin Elmer) at 490 nm wave-length. Cell plating, drug treatment and survival assay were performed using the epMotion 5070 automated liquid handling robotic system (Eppendorff, Westbury, N.Y.).
Statistical analysis of the data was carried out using GraphPad Prism (San Diego, Calif.). Relative IC50 values were calculated using the nonlinear regression curve fit with sigmoidal dose response (variable slope) function. Relative IC50 is defined as the concentration giving a response exactly half way between the fitted top and bottom of the survival curve when graphed as percent inhibition versus the log of the concentration of compound. The fitting error, or standard error describes the error involved in fitting the curve.

[2] = system: MON cells; experiment: FACS analysis of cell cycle and sub-G1 (apoptosis); settings: 2 days
Method: FIG. 3A-3B. Induction of cell cycle arrest and apoptosis by halogen derivatives of fenretinide. A. Cell cycle profile determined by FACS analysis of MON cells treated with either 5 or 10 μM concentrations of fenretinide and its derivatives for 2 days. Percentage of cells at various stages of cell cycle (G1, S and G2) is indicated. B. Percentage of MON cells at sub-G1 when exposed for 2 days to fenretinide and its derivatives.
FIG. 4A-4B. Induction of cell cycle arrest and apoptosis by peptidomimetic derivatives of fenretinide. A. Cell cycle profile determined by FACS analysis of MON cells treated with either 5 or 10 μM concentrations of fenretinide and its derivatives for 2 days. Percentage of cells at various stages of cell cycle (G1, S and G2) is indicated. B. Percentage of MON cells at sub-G1 when exposed for 2 days to fenretinide and its derivatives.
(§1) The effects of fenretinide, halogen substitutes, and peptidomimetic derivatives on cell cycle regulation and apoptosis were tested by using: i) cell survival assay (MTS); ii) FACS analysis; and iii) immunoblot analysis to determine the effect on Cyclin D1.

[3] = system: Cyclin D1; experiment: Immunoblot analysis of Cyclin D1 expression; settings: for Repression of Cyclin D1: biomarker expression, Table 3
Method: FIG. 5A-5B. Effect of fenretinide, its derivatives and peptidomimetic compounds on expression of Cyclin D1. Immunoblot analysis to determine the effect of fenretinide and its halogen substitutes (A) and peptidomimetic compounds (B). GAPDH is a loading control.
This assay was performed using a routine laboratory protocol as previously described using chemiluminescence detection method (30). The following antibodies were used: polyclonal α-cyclin D1 Ab-3 (NeoMarkers, Cat# RB-010-P0), monoclonal α-cyclin D1 DCS-6 (NeoMarkers, Cat# MS-210-P1), α-β-Actin (Sigma Cat# A5441) and α-Tubulin-α (Sigma, Cat # T5168).
as §1

[4] = system: MON (INI1−/−) rhabdoid tumor cells; experiment: MTS survival assay of rhabdoid tumor cells; settings: charcoal adsorbed serum
[5] = MON cells, three days, compounds in FIG. 1A-1D, concentration of drug required to kill 50% of cells, read-out: IC50
[6] = 72 h, MON cells, three days, compounds in FIG. 1A-1D, concentration of drug required to kill 50% of cells, read-out: IC50
[7] = MON rhabdoid cells, survival assay, values in text, read-out: IC50
[8] = regular FBS, read-out: IC50 (in regular FBS)

| Molecule | IC50 [1, 5] | cytotoxic activity against rhabdoid tumor cells (in words) [1] | IC50 [1, 6] | IC50 [1, 7] | IC50 [1, 8] | % G1 ([2]; 5 μM, Table 5) | % G2 ([2]; 5 μM, Table 5) | % S ([2]; 5 μM, Table 5) | SubG1 (percentage of MON cells at sub-G1) ([2]; 5 μM, Table 5) | % G1 ([2]; 10 μM, Table 5) | % G2 ([2]; 10 μM, Table 5) | % S ([2]; 10 μM, Table 5) | SubG1 (percentage of MON cells at sub-G1) ([2]; 10 μM, Table 5) | Repression of Cyclin D1 [3] | IC50 [4] | other results |
| --- | --- | --- | --- | --- | --- | --- | --- | --- | --- | --- | --- | --- | --- | --- | --- | --- |
| (2E,4E,6E,8E)-[3,7-Dimethyl-9-(2,6,6-trimethyl-1-cyclohexenyl)-nona-2,4,6,8-tetraenoylamino]-(4-bromo)phenylamide [5(c)] | 150 µM | – | – | – | – | – | – | – | – | – | – | – | – | – | – | – |
| (2E,4E,6E,8E)-[3,7-Dimethyl-9-(2,6,6-trimethyl-1-cyclohexenyl)-nona-2,4,6-tetraenoylamino]-(4-alcohol)phenylamide [5(l)] | 25 µM | lack of activity | – | – | – | – | – | – | – | – | – | – | – | – | – | – |
| CC1=C(/C=C/C(C)=C/C=C/C(C)=C/C(=O)Nc2ccc(Cl)cc2)C(C)(C)CCC1 [5(b), (2E,4E,6E,8E)-[3,7-Dimethyl-9-(2,6,6-trimethyl-1-cyclohexenyl)-nona-2,4,6,8-tetraenoylamino]-(4-chloro)phenylamide] | – | – | > 200 µM | ≥ 150 µM | – | – | – | – | – | – | – | – | – | – | – | – |
| CC1=C(/C=C/C(C)=C/C=C/C(C)=C/C(=O)Nc2ccc(O)c(F)c2)C(C)(C)CCC1 [5(h), (2E,4E,6E,8E)-[3,7-Dimethyl-9-(2,6,6-trimethyl-1-cyclohexenyl)-nona-2,4,6,8-tetraenoylamino]-(3-fluoro,4-hydroxy)phenylamide] | – | – | 8 µM | 8 µM | 8 µM | 87.23% | 7.10% | 5.67% | 38.78% | 87.22% | 6.97% | 5.81% | 50.79% | Yes | – | – |
| (2E,4E,6E,8E)-[3,7-Dimethyl-9-(2,6,6-trimethyl-1-cyclohexenyl)-nona-2,4,6,8-tetraenoylamino]-(4-ethylalcohol)phenylamide [5(m)] | > 50 µM | lack of activity | – | – | – | – | – | – | – | – | – | – | – | – | – | – |
| (2E,4E,6E,8E)-[3,7-Dimethyl-9-(2,6,6-trimethyl-1-cyclohexenyl)-nona-2,4,6,8-tetraenoylamino]-(4-nitro)phenylamide [5(e)] | > 200 µM | – | – | > 200 µM | – | – | – | – | – | – | – | – | – | – | – | – |
| CCC1=C(C)/C(=C/c2ccc(C(=O)O)cc2)CCC1(C)C [Compound 8] | – | – | – | > 50 µM | – | – | – | – | – | – | – | – | – | – | – | IC50 ([1]; MON cells, nonlinear regression, sigmoidal dose response, read-out: Relative IC50): > 50 µM |
| CC1=C(/C=C/C(C)=C/C=C/C(C)=C/C(=O)O)C(C)(C)CCC1 [ATRA, All-trans retinoic acid, reference compound] | – | did not have appreciable cytotoxic activity; also recorded: did not exhibit activities against rhabdoid tumor cells | 100 µM | 100 µM | > 50 µM | 82.64% | 11.04% | 6.32% | 8.22% | 82.08% | 11.21% | 6.71% | 9.27% | No | > 15 µM | % G1 ([2]; 5 μM, Table 6): 82.64%; % G2 ([2]; 5 μM, Table 6): 9.07%; % S ([2]; 5 μM, Table 6): 8.58%; SubG1 (percentage of MON cells at sub-G1) ([2]; 5 μM, Table 6): 8.22%; % G1 ([2]; 10 μM, Table 6): 82.08%; % G2 ([2]; 10 μM, Table 6): 8.18%; % S ([2]; 10 μM, Table 6): 8.51%; SubG1 (percentage of MON cells at sub-G1) ([2]; 10 μM, Table 6): 9.27%; down modulation of Cyclin D1 (in words) ([3]; rhabdoid tumor cells): unable to down modulate Cyclin D1 |
| CC1=C(/C=C/C(C)=C/C=C/C(C)=C/C(=O)Nc2ccc(F)cc2)C(C)(C)CCC1 [5(a)] | – | – | 150 µM | ≥ 150 µM | > 50 µM | 78.56% | 14.61% | 6.84% | 8.30% | 65.50% | 27.25% | 7.25% | 9.44% | – | > 15 µM | – |
| CC1=C(/C=C/C(C)=C/C=C/C(C)=C/C(=O)Nc2ccc(O)c(I)c2)C(C)(C)CCC1 [5(j), (2E,4E,6E,8E)-[3,7-Dimethyl-9-(2,6,6-trimethyl-1-cyclohexenyl)-nona-2,4,6,8-tetraenoylamino]-(3-Iodo, 4-hydroxy)phenylamide] | – | more active when compared to parent Fenretinide | 3 µM | ~3 µM | 3 µM | 86.11% | 7.83% | 6.06% | 26.48% | 87.97% | 6.87% | 5.16% | 34.21% | Yes | 0.8 µM | – |
| CC1=C(/C=C/C(C)=C/C=C/C(C)=C/C(=O)Nc2ccc(O)c(Cl)c2)C(C)(C)CCC1 [5(i), (2E,4E,6E,8E)-[3,7-Dimethyl-9-(2,6,6-trimethyl-1-cyclohexenyl)-nona-2,4,6,8-tetraenoylamino]-(3-chloro, 4-hydroxy)phenylamide] | – | – | 12.5 µM | 10 µM | 10 µM | – | – | – | – | – | – | – | – | Yes | 1.5 µM | – |
| CC1=C(/C=C/C(C)=C/C=C/C(C)=C/C(=O)Nc2ccc(O)cc2O)C(C)(C)CCC1 [5(n), (2E,4E,6E,8E)-[3,7-Dimethyl-9-(2,6,6-trimethyl-1-cyclohexenyl)-nona-2,4,6,8-tetraenoylamino]-(2,4-dihydroxy)phenylamide] | – | retains 4-HPR activity | 8 µM | 8 µM | 8 µM | 85.42% | 8.48% | 6.11% | 25.81% | 88.30% | 6.05% | 5.65% | 43.53% | – | – | – |
